Results taken from patent publication US20230043394A1, “METHODS FOR DETECTION OF PATHOGENIC ANTIPHOSPHOLIPID ANTIBODIES AND FOR IDENTIFICATION OF INHIBITORS” (UNIVERSITÄTSMEDIZIN DER JOHANNES GUTENBERG-UNIVERSITÄT MAINZ, priority 2019, published 2023).
Each block holds one molecule with its values, some of them ahead of it.

How the values were obtained:
[1] = system: monocytes; test: Induction of IFN-regulated genes and TNFα in monocytes by aPL or Tlr7 agonist; assay type: cell-based, mouse
Procedure: (B) Induction of IFN-regulated genes by aPL. (C) TF and Tnfα mRNA induction by aPL HL5B or HL7G stimulation of CD115+ splenocytes of indicated mice stimulated for 3 hours, as well as early ROS production; mean±SD, n=6; * p<0.0001; one-way ANOVA, Dunnett multiple-comparison test. (D) Live cell imaging of HL5B internalization in monocytes of indicated mouse strains. Bar=5 μm. (E) Live cell imaging of aPL HL5B Fab′2 or IgG colocalization with EPCR using non-inhibitory αEPCR 1489 in human MM1 cells. (F) Internalization of EPCR, FVIIa, and TF in MM1 cells stimulated for 15 minutes similarly required proteases and integrin trafficking. For quantification of internalization, surface staining was quenched with 0.4% trypan blue; mean±SD, n=6. * p<0.0001; one-way ANOVA, Dunnett multiple-comparison test compared to IgG control.
FXa generated by the coagulation initiator TF-FVIIa utilizes the endothelial protein C receptor (EPCR) for protease activated receptor (PAR) 2 cleavage that is specifically required for LPS-induced interferon (IFN) responses (15, 16).

[2] = system: MM1 cells; test: aPL signaling and internalization in MM1 cells with sphingomyelinase inhibitor; assay type: cell-based, human
Procedure: (A) aPL-mediated TF activation, PS exposure measured by annexin 5 staining, ROS production and TNFα induction as well as (B) aPL internalization in MM1 cells was blocked by sphingomyelinase inhibitor desipramine. Bar=5 μm. (C) aPL-induced ASM activity in MM1 cells is blocked by inhibitors of FXa, thrombin, and PAR1 cleavage. (D) Live cell imaging of surface ASM exposure in MM1 cells after 30 minutes of stimulation with Fab′2 aPL HLSB. Bar=5 μm. (E) ASM activity in unstimulated cell lysates after addition of sEPCR-LBPA (2.504) is blocked by αEPCR 1682. For all ASM activity assays: mean±SD, n=3. * p<0.0003; one-way ANOVA, Dunnett multiple-comparison test. […] (G, H) Thrombosis induction by dual reactive aPL HL7G in the indicated mouse strains or WT mice in presence of indicated αEPCR. (F-H) Quantification of thrombus size 3 hours after aPL injection; median, interquartile range, and range; n=6-11; * p <0.004; one-way ANOVA, Dunnett multiple-comparison test compared to αEPCR 1650. (I, J) Thrombosis induction by aPL HLSB (I) or IgG isolated from age-matched 16 weeks old lupus-prone MRL/lpr and MRL control mice (J) in the indicated mouse strains. Quantification of thrombus size 3 hours after aPL injection; median, interquartile range, and range; (I) n=6-10; * p=0.001; unpaired t-test. (J) n=5; * p=0.0025; two-way ANOVA, Sidak's multiple comparisons test. […]

[3] = system: ALIX^−/− trophoblast cells; test: aPL HL5B binding to ALIX-deficient trophoblast (JAR) cells after adding phospholipids; assay type: cell-based, human; conditions: 10 μM lipid added
Procedure: (§1) (A) TNFα mRNA induction after 2 hours by HLSB is prevented in Alix-deficient trophoblast cells; mean±SD, n=6. * p<0.0001; t-test following Shapiro-Wilk test for normal distribution. (B, C) Proximity ligation assays (PLA) for ASM and EPCR on scrambled control JARs or ALIX−/− cells after 10 minutes of stimulation with HLSB (B) or thrombin (C) with or without LBPA loading. Bar=25 μm. (D) aPL internalization in ALIX deficient JAR cells and signalling in EPCR^C/S monocytes (E) was restored by adding 10 μM LBPA (S,R) but not by other phospholipids. (F) Pregnancy loss was scored at day 15.5 p.c. after injection of aPL HLSB on days 8 and 12. * p<0.02; one-way ANOVA, Dunnett multiple-comparison test. (G) Schematic representation of aPL signalling leading to thrombosis or pregnancy complications.
Human ALIX^−/− trophoblast cells and murine EPCR^C/S monocytes provided tools to compare the species conservation of lipid presentation by EPCR. Only addition of S/R 18:1 LBPA and R/R 18:1 LBPA, but not S/S 18:1 LBPA or semi-S/R LBPA restored aPL HL5B binding to ALIX^−/− trophoblast cells (FIG. 7D) or signaling in EPCR^C/S monocytes (FIG. 7E). Thus, human and mouse EPCR present LBPA with the same selectivity, providing an explanation for the remarkable species cross-reactivity of pathogenic aPL.

[4] = system: EPCR^C/S monocytes; test: Lipid supplementation and aPL signalling in EPCR^C/S monocytes; assay type: cell-based, mouse; conditions: for aPL signaling in EPCR^C/S monocytes after adding LBPA isomers: 10 μM
Text: (§2) (A) Effect of aPL HL5B, aPL HL7G, and αEPCR antibodies on EPCR-dependent aPC generation on murine microvascular endothelial cells. (B) Effect of anti-mouse EPCR antibodies 1682 and 1650 on Tnfα mRNA induction by aPL HL5B and HL7G; mean±SD, n=6. * p<0.0001; one-way ANOVA, Dunnett multiple-comparison. (C) Effect of αEPCR on aPL HL5B and HL7G internalization in CD115+ splenocytes. Bar=5 μm. (D) Flow cytometry detection of FXa and EPCR on CD115+ spleen monocytes isolated from indicated mouse strains. (E) Effect of pre-treatment with 10 μM LBPA for 10 min on surface binding of αEPCR 1682 and αLBPA 6C4 on indicated monocytes; mean±SD, n=6. * p<0.003; multiple t-tests. (F) Competition of αEPCR 1650 and 1682 with binding of FITC-labelled anti-LBPA antibody 6C4 to mouse CD115+ splenocytes. (G) Competition of αLBPA 6C4 with binding of αEPCR 1682 to mouse monocytes. (H) Effect of LBPA, cardiolipin (CL), and phosphatidylserine (PS) (10 μM) on aPL HLSB signalling in EPCR^C/S monocytes. Induction of TNF after 3 hours is shown; mean±SD, n=6. (I) LBPA loading of purified mouse or human sEPCR evidenced by faster mobility on native gels. (J) Surface plasmon resonance analysis of aPL HLSB binding to purified human sEPCR or sEPCR-LBPA. The affinity calculation was based on a monovalent binding model because no cooperative binding was evident.
as §1, with “(G) Schematic representation of aPL signalling leading to thrombosis or pregnancy complications.” left out

[5] = system: EPCR^C/S pDC; test: Mouse pDC and B cell co-culture with R848 and aPL HL5B, anti-cardiolipin titers; assay type: cell-based; conditions: co-cultures with EPCR^C/S pDC
Procedure: (§3) (A) Gbp2 mRNA induction after 1 hour stimulation with HL5B, HL7G, or LPS (100 ng/ml) in EPCR^C/S or WT monocytes with or without addition of LBPA. (B) WT monocytes were stimulated for 1 hour with IgG isolated from MRL/lpr lupus-prone or control MRL mice in the presence of the indicated antibodies to EPCR. (C) Human monocyte-derived DC were co-cultured with B cells in the presence of TLR7/8 agonist R848 and aPL HL5B with the indicated antibodies to human EPCR. Anti-cardiolipin titers were determined after 10 days. (D-F) Co-cultures of isolated spleen plasmacytoid dendritic cells (pDC) and B cells from the indicated mouse strains were co-cultured with Tlr7 agonist R848 and aPL HL5B for 10 days, followed by determination of anti-cardiolipin titers. IFNR^−/−, type I interferon receptor deficient mice.
Supporting this conclusion, anti-cardiolipin antibody production was absent when mouse pDC, but not B cells, were isolated from EPCR^C/S mice (FIG. 9D). Addition of LBPA or interferon a restored the expansion of anti-cardiolipin producing B cells in co-cultures with aPL signaling-deficient EPCR^C/S pDC (FIG. 9D). In contrast, cells deficient in LRP8, the receptor for β2GPI, produced anti-cardiolipin antibodies normally in response to co-stimulation of aPL and Tlr7 agonist (FIG. 9E).

[6] = system: acidic sphingomyelinase (ASM); test: ASM activity in CD115+ spleen monocytes stimulated with aPL HLSB; assay type: cell-based, mouse; conditions: EPCR^C/S monocytes, LBPA 10 μM
Procedure: (A) WT CD115+ spleen monocyte induction of ASM activity after 15 minutes aPL HLSB stimulation with the indicated inhibitors. (B) LBPA (10 μM) loading of EPCR^C/S cells enabled ASM activation in CD115+ monocytes stimulated with HLSB.
ASM requires LBPA for activity (33). […] Thrombin stimulation to induce ASM surface expression was sufficient to trigger ASM activation that was blocked by extracellular addition of αEPCR-LBPA 1682 (FIG. 6C). TfpiΔK1 cells expressed LBPA-loaded EPCR (FIG. 3D), but lack surface FXa to trigger thrombin generation. […] In turn, ASM modification of surface lipid modification is required for endosomal trafficking and signaling of EPCR-bound aPL.

[7] = biological target: T1, LBPA-loaded EPCR (Mus musculus, UniProt Q64695, C242S); test: Flow cytometry surface staining of monocytes with αEPCR 1682 and αLBPA 6C4; assay type: binding; conditions: LBPA added to culture medium, 10 μM, 10 min
T1 construct: endogenous in cells; host or cells: mouse CD115+ spleen monocytes; murine microvascular endothelial cells
T1 sequence (Q64695 18-242 C242S): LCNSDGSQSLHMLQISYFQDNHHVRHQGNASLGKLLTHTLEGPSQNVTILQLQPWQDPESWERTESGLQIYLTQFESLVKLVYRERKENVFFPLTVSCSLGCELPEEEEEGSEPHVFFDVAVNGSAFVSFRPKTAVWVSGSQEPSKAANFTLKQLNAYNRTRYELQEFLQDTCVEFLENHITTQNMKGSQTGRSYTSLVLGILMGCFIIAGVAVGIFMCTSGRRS
Text: as §2, with “evident. […]” for “evident.”

[8] = system: human trophoblast cells; test: TNFα mRNA induction by HLSB in ALIX knock-down trophoblast cells; assay type: cell-based; conditions: extracellular LBPA supplemented
Procedure: as §1
The importance of this pathway in human trophoblast cells by knock-down of ALIX (FIG. 8A) was evaluated, which is required for normal lysosomal functioning. ALIX knock-down diminished LBPA cell surface presentation, but not EPCR expression (FIG. 8B) and abolished aPL-induced, but not TNFα-induced proinflammatory effects.

[9] = system: EPCR^C/S monocytes; test: Gbp2 mRNA induction by aPL in EPCR^C/S monocytes; assay type: cell-based, mouse; conditions: 1 hour stimulation with aPL
Procedure: as §3
Further, it was investigated whether the identified target for lipid-reactive aPL contributes to the development of autoimmunity. Upregulation of interferon responses in circulating immune cells are linked to the development of APS (38, 39). […] In addition, IgG isolated from MRL/lpr lupus erythematosus mice, but not MRL control mice induced interferon responses dependent on EPCR-LPBA in monocytes (FIG. 9B).

[10] = system: acidic sphingomyelinase (ASM); test: ASM activity in unstimulated cell lysates after addition of sEPCR-LBPA; assay type: biochemical
Procedure: (A) aPL-mediated TF activation, PS exposure measured by annexin 5 staining, ROS production and TNFα induction as well as (B) aPL internalization in MM1 cells was blocked by sphingomyelinase inhibitor desipramine. Bar=5 μm. (C) aPL-induced ASM activity in MM1 cells is blocked by inhibitors of FXa, thrombin, and PAR1 cleavage. (D) Live cell imaging of surface ASM exposure in MM1 cells after 30 minutes of stimulation with Fab′2 aPL HLSB. Bar=5 μm. (E) ASM activity in unstimulated cell lysates after addition of sEPCR-LBPA (2.504) is blocked by αEPCR 1682. For all ASM activity assays: mean±SD, n=3. * p<0.0003; one-way ANOVA, Dunnett multiple-comparison test. […] (G, H) Thrombosis induction by dual reactive aPL HL7G in the indicated mouse strains or WT mice in presence of indicated αEPCR. (F-H) Quantification of thrombus size 3 hours after aPL injection; median, interquartile range, and range; n=6-11; * p <0.004; one-way ANOVA, Dunnett multiple-comparison test compared to αEPCR 1650. (I, J) Thrombosis induction by aPL HLSB (I) or IgG isolated from age-matched 16 weeks old lupus-prone MRL/lpr and MRL control mice (J) in the indicated mouse strains. Quantification of thrombus size 3 hours after aPL injection; median, interquartile range, and range; (I) n=6-10; * p=0.001; unpaired t-test. (J) n=5; * p=0.0025; two-way ANOVA, Sidak's multiple comparisons test.
ASM requires LBPA for activity (33). […]

Molecule: CCOCc1nc2c(N)nc3ccccc3c2n1CC(C)(C)O [R848]
- induction of TNFα [1]: upregulated only TNFα

Molecule: CNCCCN1c2ccccc2CCc2ccccc21 [desipramine]
- aPL internalization [2]: blocked
- aPL-mediated TF activation, PS exposure, ROS production and TNFα induction [2]: blocked

Molecule: R/R 18:1 LBPA
- aPL HL5B binding to ALIX^−/− trophoblast cells [3]: restored
- aPL signaling in EPCR^C/S monocytes after adding LBPA isomers [4]: restored

Molecule: S/R 18:1 LBPA
- aPL HL5B binding to ALIX^−/− trophoblast cells [3]: restored
- aPL signaling in EPCR^C/S monocytes after adding LBPA isomers [4]: restored

Molecule: interferon a
- expansion of anti-cardiolipin producing B cells [5]: restored

- ASM activation by aPL after extracellular addition of LBPA [6]: restored ASM activation
- cell surface αLBPA 6C4 and αEPCR 1682 staining of EPCR^C/S cells [7]: restored
Molecule: lysobisphosphatidic acid [LBPA]
- expansion of anti-cardiolipin producing B cells [5]: restored
- aPL pro-inflammatory signaling of EPCR^C/S cells after lipid supplementation ([4]; 10 μM lipid, TNF induction after 3 hours): restored aPL pro-inflammatory signaling
- aPL signaling in ALIX knock-down trophoblast cells [8]: restored aPL signaling
- interferon responses (GBP2) in EPCR^C/S monocytes [9]: restored interferon responses

B1: EPCR-LBPA: purified soluble EPCR loaded with LBPA by lipid exchange (protein, UniProt Q9UNN8 18-210, looked up)
extracellular domain: SQDASDGLQRLHMLQISYFRDPYHVWYQGNASLGGHLTHVLEGPDTNTTIIQLQPLQEPESWARTQSGLQSYLLQFHGLVRLVHQERTLAFPLTIRCFLGCELPPEGSRAHVFFEVAVNGSSFVSFRPERALWQADTQVTSGVVTFTLQQLNAYNRTRYELREFLEDTCVQYVQKHISAENTKGSQTSRSYTS
modifications: extracellular domain loaded with LBPA lipid
notes: purified soluble EPCR loaded with LBPA by lipid exchange
- induction of ASM activity in cell lysates of unstimulated cells [10]: efficiently induced ASM activity
